Results from patent US20030037354A1, “Animal model with disrupted Fgf14 gene” (priority 2001, published 2003).
Where two headings read alike, the source gives them in different places.

Experiments:
[1] = system: wildtype and FGF14 deficient mice; experiment: PTZ-induced seizure: latency to onset and time to death; assay type: in vivo, mouse; conditions: for time to death (mean duration): FGF14 (−/−) mice
Experimental: Time to onset of tonic-clonic seizure was recorded. In the first experiment (FIG. 9), the mean age was 82 days and the sex ratio was 50% male/female. In the second experiment, the mean age was 354 days and all animals were female.

[2] = system: wildtype and Fgf14^N-βGal/N-βGal mice; experiment: Locomotor activity response to stimulant drugs and dopamine receptor agonists; assay type: in vivo, mouse
Experimental: Locomotor activity. For the locomotor activity experiments, all mice were acclimated to the activity cages (28 cm long×17 cm wide×12.5 cm high) for one hour on two consecutive days. […] Mice were tested every other day and the order of drug treatment was counterbalanced across days within genotype groups. Locomotor activity was recorded every five minutes by two beams of red light placed at 10 and 19 cm along the length of the activity cage.
Statistical Analyses. The behavioral data were analyzed using analysis of variance (ANOVA) models typically containing one between-subjects variable (Genotype) and one within-subjects variable (e.g., Trials or Test Sessions). Subsequent one-way ANOVAs were used to evaluate main effects. Data from the experiments concerning drug effects on locomotor activity were analyzed by using a […] analysis of variance (ANOVA) with one between-subjects variable (Drug) being added to the above model. […] Alpha was set at p<0.05 for all analyses.

extracellular dopamine = conditions: cited from earlier work
[3] = system: Dopamine D1 receptor deficient mice; conditions: cited from earlier work
[4] = system: wildtype and Fgf14^N-βGal/N-βGal mice; experiment: Cocaine-induced seizure activity with EEG recording; assay type: in vivo, mouse
Experimental: Surgical implantation of skull screw electrodes was performed with the mice positioned in a stereotaxic frame under halothane anesthesia. Using sterile technique, the scalp was incised at the midline and the periosteum was scraped free from the skull. Three burr holes were made with a high speed drill for placement of epidural screw electrodes. Two active electrodes were placed over the right and left frontal cortex approximately 1 mm posterior to the bregma. A reference electrode was implanted in the region over the frontal sinus. The electrodes and lead wires were stabilized to the skull with dental cement. The mice were allowed a three-day recovery period before recording. Reference EEG recordings from the right and left frontal regions were performed using a Grass P5 Series AC amplifier with high and low frequency filter settings at 100 and 1 Hz, respectively. The outputs of the amplifiers were digitized and stored using an analog-to-digital converter and Axoscope software.

[5] = Fgf14^N-βGal/N-βGal mice, 40 mg/kg

C1CCc2nnnn2CC1 [PTZ, pentylenetetrazol]
time to death (mean duration) ([1]; Experiment 1, 100 mg/kg IP, average age 82 days): about 4200 seconds | time to death (mean duration) ([1]; Experiment 2, 75 mg/kg IP, average age 354 days): ~5700 s | time to death after seizure onset ([1]; wild type mice): 15 to 20 s

Oc1cc2c(cc1O)C(c1ccccc1)CNCC2 (stereo not shown) [SKF38393]
reduction in the locomotor activity induced by the D1R agonist ([2]; Fgf14^N-βGal/N-βGal mice compared to wildtype): 30%

CC(N)Cc1ccccc1 (stereo not shown) [amphetamine]
hyperactivity response relative to wildtype littermates ([2]; Fgf14^N-βGal/N-βGal mice, 2 and 4 mg/kg subcutaneous): significantly lower | elevation of DA efflux above baseline (extracellular dopamine; 2 mg/kg): 350% | elevation of DA efflux above baseline (extracellular dopamine; 4 mg/kg): 750% | locomotor response ([3]; 2 mg/kg): non-responsive | locomotor response ([3]; 5 mg/kg): decreased response

COC(=O)[C@H]1[C@@H](OC(=O)c2ccccc2)C[C@@H]2CC[C@H]1N2C [cocaine]
EEG recording [4, 5]: epileptiform activity | induction of seizures (behaviour) [4, 5]: brief tonic movements | induction of seizures ([4]; both wildtype and FGF14 deficient mice, 80 mg/kg): tonic-clonic seizures | induction of seizures ([4]; wildtype mice, 40 mg/kg): did not induce seizures
